Laboratory results from patent US7449495B2, “Retinoid derivatives with antiangiogenic, antitumoral and proapoptotic activities” (Sigma-Tau Industrie Farmaceutiche Riunite S.p.A., priority 2001, dated 2008).

Assays:
[1] = test system: Human prostate carcinoma DU145; test: Cytotoxicity test (sulphorodamine B), DU145; assay type: cell-based; conditions: DU-145, 24 h incubation, survival 48 h after removal
Text: Different cell lines deriving from solid tumors were also used. • 1. Human prostate carcinoma PC3 and DU145. These cell lines were maintained in RPMI 1640 medium containing 10% FCS, 1% sodium pyruvate and 1% glutamine; • 2. Human colon adenocarcinoma LoVo. This cell line was maintained in HAM's F-12 medium, containing 10% FCS and 1% glutamine. • 3. Human ovarian carcinoma such as A2780 and A2780/Dx, sensitive and resistant to drugs, respectively (doxorubicin, taxol, etoposide, vincristine); IGROV-1 and IGROV-1/Pt, sensitive and resistant to platinum-based chemotherapy, respectively, were maintained in RPMI 1640 medium containing 10% FCS, 1% sodium pyruvate and 1% glutamine; • 4. Human melanoma MeWo and MeS 2.21, glioblastoma GBM, no small cell lung carcinomas A431, NCI—H460, osteosarcomas SAOS and U2OS were maintained in RPMI 1640 medium containing 10% FCS, 1% sodium pyruvate and 1% glutamine.
The cytotoxicity tests were carried out using NB4 or HL-60 cells in suspension (10000/well). The cells were seeded in a volume of 250 μl in 96 well plates and incubated for 24 hours at 37° C. […] The optical density was measured using a Multiskan spectrophotometer at 540 nm. […]
Cell survival was determined by incubation with ST1926 for 24 hours, 48 hours after the removal of the compound. […]

[2] = test system: human ovarian carcinoma A2780; test: Antitumoral activity in human ovarian carcinoma model A2780; assay type: in vivo, CD1 nu/nu mice; conditions: qdx5x3w
Description: The human ovarian carcinoma cells A2780, A2780/Dx and NCIH460 were maintained in RPMI-1640 containing 10% FCS, 2 mM glutamine, 50 μg/ml gentamicin, at 37° C. in a humidified atmosphere containing 5% CO2. The cells were trypsinised, collected in complete medium, centrifuged at approx. 1100 rpm for 10 minutes and the precipitate resuspended in Hank's 199 Medium; this operation was carried out twice. The cells were resuspended in Hank's 199 Medium at a density of 20×10^6/ml and 0.1 ml (equal to 2×10^6 cells/mouse) were injected s.c. into the right flank of CD1 nu/nu 6 week-old, female mice.
The ST1926 solution was prepared immediately before use and solubilised in cremophor:ethanol 1:1 and subsequently diluted 1:4 in buffered saline solution. The animal treatments were administered in a volume of 10 ml/kg. The treatment protocol for ST1926 at different doses was for 5 consecutive days (qd×5), beginning one day following tumor cell inoculation and repeated for 3 cycles. Measurements of tumor dimensions were performed using a digital calliper (Vernier Caliper) twice weekly, from the time in which the mass was measurable. The tumor mass was evaluated from the size of the two principal dimensions (length and breadth), expressed in mm, applying the formula (length×breadth^2)/2, that is, the tumor volume in mm3. For each experimental group, the percentage of tumor volume inhibition was calculated (TVI %), with respect to the control, namely (100−(T/C %). TVI was evaluated 2 days after the final administration of ST1926.
The mice were measured until the control group tumors had reached a weight of 2 g, then the mice were sacrificed by cervical dislocation.
A comparison between the TVI values obtained for each group was performed using the non parametric Mann Whitney test for non-paired data, using the Instat software from GraphPad inc.
The mice were weighed prior to each treatment, firstly, so as to be able to administer the correct quantity of substance based on the possible changes in weight observed throughout the course of administration of the drug, and also to record the maximum weight loss throughout the treatment (BWL % max).

## O=C(O)/C=C/c1ccc(-c2ccc(O)c(C34CC5CC(CC(C5)C3)C4)c2)cc1 [ST1926, E-4-(3-(1-adamantyl)-4-hydroxyphenyl)cinnamic acid]
[1]
  IC50: 100 nM
[2]; A2780, 5 mg/kg p.o.
  BWL % Max: 3%
  Lethality: 0/8
  TVI % ± SE: *34 ± 8%
[2]; A2780, 10 mg/kg p.o.
  BWL % Max: 5%
  Lethality: 0/8
  TVI % ± SE: *39 ± 5%
